The text below walks through data of ChEMBL document CHEMBL1133141, “Synthesis and biological activities of hapalosin derivatives with modification at the C12 position” (2000).

One experiment has as its system HT-1080. Put plainly: Compound was tested for the induction of apoptosis in human fibrosarcoma HT1080 cell line; No induction of apoptosis up to 10 ug/mL. It counts as functional, cell-based.
The next experiment concerns A2780. The experiment in a line: MDR-reversing activity was measured by vincristine accumulation in the multidrug resistant 2780AD, a subline of A2780 ovarian carcinoma cells at 10 µg/mL.

With `CCCCCCC[C@H]1OC(=O)C[C@@H](O)[C@H](Cc2ccccc2)N(C)C(=O)[C@H](CCSC)OC(=O)[C@H]1C`, in the experiment with HT-1080, the Concentration result is “No induction”. Further, in the experiment on A2780, the “Vincristine accumulation (% of control)” value was determined as 269%.

Regarding `CCCCCCC[C@H]1OC(=O)C[C@@H](O)[C@H](Cc2ccccc2)N(C)C(=O)[C@H](CC(C)C)OC(=O)[C@H]1C`, the Concentration entry with HT-1080 is “No induction”. Besides, the “Vincristine accumulation (% of control)” value in the experiment with A2780 was found to be 288%.

For the molecule `CCCCCCC[C@H]1OC(=O)C[C@@H](O)[C@H](Cc2ccccc2)N(C)C(=O)[C@H](C(C)CC)OC(=O)[C@H]1C` (stereo partly drawn), in the experiment on HT-1080, the Concentration entry is “No induction”. In the experiment with A2780, the “Vincristine accumulation (% of control)” value was 308%.

With `CCCCCCC[C@H]1OC(=O)C[C@@H](O)[C@H](Cc2ccccc2)N(C)C(=O)[C@H](C(C)C)OC(=O)[C@H]1C` [HAPALOSIN], the Concentration result in the experiment with HT-1080 is “No induction”. Besides, the “Vincristine accumulation (% of control)” value in the experiment with A2780 was determined as 267%.

Turning to `CCCCCCC[C@H]1OC(=O)C[C@@H](O)[C@H](Cc2ccccc2)N(C)C(=O)[C@H](Cc2ccccc2)OC(=O)[C@H]1C`, the Concentration entry in the experiment on HT-1080 is “No induction”. In addition, in the experiment on A2780, the “Vincristine accumulation (% of control)” value came out at 254%.

As to `COc1ccc(CCN(C)CCCC(C#N)(c2ccc(OC)c(OC)c2)C(C)C)cc1OC` (stereo not drawn) [VERAPAMIL], the “Vincristine accumulation (% of control)” value in the experiment on A2780 is 350%.

On to `CCCCCCC[C@H]1OC(=O)C[C@@H](O)[C@H](Cc2ccccc2)N(C)C(=O)[C@H](C)OC(=O)[C@H]1C`, for which the Concentration result in the experiment on HT-1080 is “No induction”. Besides, in the experiment with A2780, the “Vincristine accumulation (% of control)” value is recorded as 441%.
